The compounds below were run against GST tagged truncated human mutant G2019S LRRK2 (Homo sapiens (Human), UniProt Q5S007, G2019S) (assay: LRRK2 Km ATP LanthaScreen Assay). Conditions: 134 μM ATP (Km ATP), LRRKtide substrate, negative log of mean IC50 (molar).
Assay type: biochemical
Summary of the method: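 Truncated GST-tagged G2019S LRRK2 (1.25 nM enzyme solution) was preincubated with compound for 15 min at rt, then reacted for 90 min with fluorescein-LRRKtide and 134 μM ATP (Km) in Tris pH 8.5/MgCl2 buffer. After an EDTA stop, TR-FRET used a Tb anti-pERM antibody (520/495 nm ratio). IC50 came from a 4-parameter fit and is reported as pIC50, mean of several runs.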

GST tagged truncated human mutant G2019S LRRK2, sequence (Q5S007 970-2527 G2019S): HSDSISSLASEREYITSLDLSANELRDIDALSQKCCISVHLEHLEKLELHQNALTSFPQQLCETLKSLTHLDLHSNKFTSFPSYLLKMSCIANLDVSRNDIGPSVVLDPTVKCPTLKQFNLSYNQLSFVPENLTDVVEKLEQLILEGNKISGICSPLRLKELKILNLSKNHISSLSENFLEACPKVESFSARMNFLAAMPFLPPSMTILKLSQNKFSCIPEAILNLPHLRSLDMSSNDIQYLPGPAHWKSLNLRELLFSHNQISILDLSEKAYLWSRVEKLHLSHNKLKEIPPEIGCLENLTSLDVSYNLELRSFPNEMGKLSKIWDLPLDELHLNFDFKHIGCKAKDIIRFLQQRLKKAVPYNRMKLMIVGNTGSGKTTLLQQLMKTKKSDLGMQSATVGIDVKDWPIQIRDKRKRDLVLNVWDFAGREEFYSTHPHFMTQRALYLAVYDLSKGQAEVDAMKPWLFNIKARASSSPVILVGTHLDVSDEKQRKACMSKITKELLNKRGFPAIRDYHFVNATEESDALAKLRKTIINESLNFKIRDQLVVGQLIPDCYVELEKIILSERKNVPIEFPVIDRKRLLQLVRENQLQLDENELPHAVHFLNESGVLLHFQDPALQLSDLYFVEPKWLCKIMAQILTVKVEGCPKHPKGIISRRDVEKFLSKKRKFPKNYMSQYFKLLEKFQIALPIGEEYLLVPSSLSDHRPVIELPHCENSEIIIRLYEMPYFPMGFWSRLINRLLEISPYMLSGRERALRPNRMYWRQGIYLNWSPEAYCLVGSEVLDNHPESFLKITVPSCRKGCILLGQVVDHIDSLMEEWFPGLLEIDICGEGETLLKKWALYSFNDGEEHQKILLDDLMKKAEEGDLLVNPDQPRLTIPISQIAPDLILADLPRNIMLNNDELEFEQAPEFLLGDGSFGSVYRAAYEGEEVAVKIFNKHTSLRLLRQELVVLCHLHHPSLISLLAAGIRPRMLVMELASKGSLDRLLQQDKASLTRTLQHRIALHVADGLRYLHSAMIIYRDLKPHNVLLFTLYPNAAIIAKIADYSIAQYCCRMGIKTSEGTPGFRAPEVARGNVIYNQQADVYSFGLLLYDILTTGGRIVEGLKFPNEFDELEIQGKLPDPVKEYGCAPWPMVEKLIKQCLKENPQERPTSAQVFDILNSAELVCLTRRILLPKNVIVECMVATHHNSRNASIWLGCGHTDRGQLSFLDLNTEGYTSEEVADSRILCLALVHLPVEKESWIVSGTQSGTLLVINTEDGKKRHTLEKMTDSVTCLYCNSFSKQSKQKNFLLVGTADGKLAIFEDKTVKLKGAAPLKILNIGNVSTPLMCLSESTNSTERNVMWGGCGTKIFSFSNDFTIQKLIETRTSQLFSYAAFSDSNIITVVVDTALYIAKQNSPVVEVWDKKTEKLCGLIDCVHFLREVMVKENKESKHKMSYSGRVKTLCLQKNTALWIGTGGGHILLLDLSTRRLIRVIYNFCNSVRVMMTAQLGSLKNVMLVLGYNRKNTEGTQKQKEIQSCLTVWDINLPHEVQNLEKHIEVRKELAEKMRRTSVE

First: O=C(Nc1cnn(CC2CCC2)c1)c1cccc(-c2cnn(CCN3CCOCC3)c2)n1 [Example 9-35, N-[1-(cyclobutylmethyl)-1H-pyrazol-4-yl]-6-[1-(2-morpholin-4-ylethyl)-1H-pyrazol-4-yl]pyridine-2-carboxamide]
Second: O=C(Nc1cnn(CC2CCC2)c1)c1cccc(-c2cncnc2)n1 [Example 9-2, N-[1-(cyclobutylmethyl)-1H-pyrazol-4-yl]-6-pyrimidin-5-ylpyridine-2-carboxamide]
The “LRRK2 pIC50” value of the first is lower: 5.32 for the first, 5.74 for the second.

First: Cn1cc(NC(=O)c2csc(-c3cn[nH]c3)n2)c(Oc2ccccc2)n1 [Example 1-30, N-(1-methyl-3-phenoxy-1H-pyrazol-4-yl)-2-(1H-pyrazol-4-yl)-1,3-thiazole-4-carboxamide]
Second: COc1nn(C)cc1NC(=O)c1csc(-c2cn[nH]c2)n1 [Example 1-14, N-(3-methoxy-1-methyl-1H-pyrazol-4-yl)-2-(1H-pyrazol-4-yl)-1,3-thiazole-4-carboxamide]
The “LRRK2 pIC50” value of the first is higher: 7.78 for the first, 7.13 for the second.

First: O=C(Nc1cnn(C2CCC2)c1)c1csc(-c2cn[nH]c2)n1 [Example 1-1, N-(1-Cyclobutyl-1H-pyrazol-4-yl)-2-(1H-pyrazol-4-yl)thiazole-4-carboxamide]
Second: O=C(Nc1cnn(C2CC2)c1)c1csc(-c2cn[nH]c2)n1 [Example 1-25, N-(1-cyclopropyl-1H-pyrazol-4-yl)-2-(1H-pyrazol-4-yl)-1,3-thiazole-4-carboxamide]
The “LRRK2 pIC50” value of the first is higher: 8.01 for the first, 7.65 for the second.

Compared with `N#CC1(c2cccc(C(=O)Nc3cnn(CC4CCC4)c3)n2)CC1` [Example 10-1, 6-(1-Cyanocyclopropyl)-N-(1-(cyclobutylmethyl)-1H-pyrazol-4-yl)picolinamide], `Cn1ccc(-c2cccc(C(=O)Nc3cnn(CC4CCC4)c3)n2)n1` [Example 9-22, N-[1-(cyclobutylmethyl)-1H-pyrazol-4-yl]-6-(1-methyl-1H-pyrazol-3-yl)pyridine-2-carboxamide] is lower in “LRRK2 pIC50” value: 6.90 for the first, 6.53 for the second.

Compared with `CC(C)n1cc(NC(=O)c2coc(-c3cn[nH]c3)n2)cn1` [Example 1-39, N-[1-(1-methylethyl)-1H-pyrazol-4-yl]-2-(1H-pyrazol-4-yl)-1,3-oxazole-4-carboxamide], `CC(C)n1cc(NC(=O)c2csc(-c3cn[nH]c3)n2)cn1` [Example 1-20, N-[1-(1-methylethyl)-1H-pyrazol-4-yl]-2-(1H-pyrazol-4-yl)-1,3-thiazole-4-carboxamide] is higher in “LRRK2 pIC50” value: 6.36 for the first, 7.68 for the second.

Compared with `O=C(Nc1cnn(-c2ccccc2)c1)c1csc(-c2cn[nH]c2)n1` [Example 1-24, N-(1-phenyl-1H-pyrazol-4-yl)-2-(1H-pyrazol-4-yl)-1,3-thiazole-4-carboxamide], `O=C(Nc1cnn(-c2ccncc2)c1)c1csc(-c2cn[nH]c2)n1` [Example 1-8, 2-(1H-pyrazol-4-yl)-N-(1-pyridin-4-yl-1H-pyrazol-4-yl)-1,3-thiazole-4-carboxamide] is higher in “LRRK2 pIC50” value: 7.56 for the first, 8.07 for the second.

First: O=C(Nc1cnn(CC2(F)COC2)c1)c1csc(-c2cn[nH]c2)n1 [Example 5-1, N-(1-((3-Fluorooxetan-3-yl)methyl)-1H-pyrazol-4-yl)-2-(1H-pyrazol-4-yl)thiazole-4-carboxamide]
Second: CC1(Cn2cc(NC(=O)c3csc(-c4cn[nH]c4)n3)cn2)CCC1 [Example 1-34, N-{1-[(1-methylcyclobu-tyl)methyl]-1H-pyrazol-4-yl}-2-(1H-pyrazol-4-yl)-1,3-thiazole-4-carboxamide]
The “LRRK2 pIC50” value of the first is lower: 7.50 for the first, 7.92 for the second.

`CC(C)Oc1nn(C)cc1NC(=O)c1csc(-c2cn[nH]c2)n1` [Example 1-16, N-[1-methyl-3-(1-methylethoxy)-1H-pyrazol-4-yl]-2-(1H-pyrazol-4-yl)-1,3-thiazole-4-carboxamide] and `Cn1cc(NC(=O)c2csc(-c3cn[nH]c3)n2)c(OCC(F)F)n1` [Example 1-26, N-[3-(2,2-difluoroethoxy)-1-methyl-1H-pyrazol-4-yl]-2-(1H-pyrazol-4-yl)-1,3-thiazole-4-carboxamide] are within 0.2 log units of each other in “LRRK2 pIC50” value: 7.43 for the first, 7.56 for the second.

Going from `O=C(Nc1cnn(C2CCC2)c1)c1cccc(-n2ccnc2)n1` [Example 4-17, N-(1-cyclobutyl-1H-pyrazol-4-yl)-6-(1H-imidazol-1-yl)picolinamide] to `O=C(Nc1cnn(C2CCC2)c1)c1cccc(-n2cccn2)n1` [Example 4-13, N-(1-cyclobutyl-1H-pyrazol-4-yl)-6-(1H-pyrazol-1-yl)pyridine-2-carboxamide], the “LRRK2 pIC50” value rises from 5.91 to 6.76.

Compared with `Cn1cc(-c2nc(C(=O)Nc3cnn(CC4CCC4)c3)cs2)cn1` [Example 12-1, N-(1-(Cyclobutylmethyl)-1H-pyrazol-4-yl)-2-(1-methyl-1H-pyrazol-4-yl)thiazole-4-carboxamide], `CCn1cc(-c2nc(C(=O)Nc3cnn(C4CCC4)c3)cs2)cn1` [Example 9-4, N-(1-cyclobutyl-1H-pyrazol-4-yl)-2-(1-ethyl-1H-pyrazol-4-yl)-1,3-thiazole-4-carboxamide] is lower in “LRRK2 pIC50” value: 7.74 for the first, 7.41 for the second.

Going from `Cn1cnc(-c2nc(C(=O)Nc3cnn(C4CCC4)c3)cs2)c1` [Example 9-9, N-(1-cyclobutyl-1H-pyrazol-4-yl)-2-(1-methyl-1H-imidazol-4-yl)-1,3-thiazole-4-carboxamide] to `O=C(Nc1cnn(C2CCC2)c1)c1csc(-n2ccnc2)n1` [Example 11-2, N-(1-cyclobutyl-1H-pyrazol-4-yl)-2-(1H-imidazol-1-yl)thiazole-4-carboxamide], the “LRRK2 pIC50” value falls from 8.04 to 6.61.

`CC(C)Cn1cc(NC(=O)c2csc(-c3cn[nH]c3)n2)c(C(F)F)n1` [Example 7-23, N-[3-(difluoromethyl)-1-(2-methylpropyl)-1H-pyrazol-4-yl]-2-(1H-pyrazol-4-yl)-1,3-thiazole-4-carboxamide] and `O=C(Nc1cn(CCF)nc1C(F)F)c1csc(-c2cn[nH]c2)n1` [Example 7-9, N-[3-(difluoromethyl)-1-(2-fluoroethyl)-1H-pyrazol-4-yl]-2-(1H-pyrazol-4-yl)-1,3-thiazole-4-carboxamide] are within 0.2 log units of each other in “LRRK2 pIC50” value: 7.59 for the first, 7.75 for the second.

Compared with `CNC(=O)c1nn(C)cc1NC(=O)c1csc(-c2cn[nH]c2)n1` [Example 1-4, N-[1-methyl-3-(methylcarba-moyl)-1H-pyrazol-4-yl]-2-(1H-pyrazol-4-yl)-1,3-thiazole-4-carboxamide], `Cn1cc(NC(=O)c2csc(-c3cn[nH]c3)n2)c(C2CC2)n1` [Example 1-42, N-(3-cyclopropyl-1-methyl-1H-pyrazol-4-yl)-2-(1H-pyrazol-4-yl)-1,3-thiazole-4-carboxamide] is lower in “LRRK2 pIC50” value: 8.15 for the first, 7.74 for the second.

Compared with `Cn1cc(-c2cccc(C(=O)Nc3cnn(C4CCC4)c3)c2F)cn1` [Example 9-38, N-(1-cyclobutyl-1H-pyrazol-4-yl)-2-fluoro-3-(1-methyl-1H-pyrazol-4-yl)benzamide], `O=C(Nc1cnn(C2CC2)c1)c1cccc(-c2cnn(CC(F)(F)F)c2)n1` [Example 4-1, N-(1-Cyclopropyl-1H-pyrazol-4-yl)-6-(1-(2,2,2-trifluoroethyl)-1H-pyrazol-4-yl)picolinamide] is higher in “LRRK2 pIC50” value: 7.10 for the first, 7.98 for the second.

First: CN(C)CCCn1cc(NC(=O)c2csc(-c3cn[nH]c3)n2)cn1 [Example 7-6, N-{1-[3-(dimethylamino)propyl]-1H-pyrazol-4-yl}-2-(1H-pyrazol-4-yl)-1,3-thiazole-4-carboxamide]
Second: O=C(Nc1cnn(CCC2CCNCC2)c1)c1csc(-c2cn[nH]c2)n1 [Example 7-32, N-{1-[2-(piperidin-4-yl)ethyl]-1H-pyrazol-4-yl}-2-(1H-pyrazol-4-yl)-1,3-thiazole-4-carboxamide]
The “LRRK2 pIC50” value of the first is lower: 6.43 for the first, 7.38 for the second.

Going from `CC(C)c1cc(-n2cc(NC(=O)c3csc(-c4cn[nH]c4)n3)cn2)ccn1` [Example 8-3, N-{1-[2-(1-methylethyl)pyridin-4-yl]-1H-pyrazol-4-yl}-2-(1H-pyrazol-4-yl)-1,3-thiazole-4-carboxamide] to `Cc1nn(C(C)C2CC2)cc1NC(=O)c1csc(-c2cn[nH]c2)n1` (single isomer, unassigned) [Example 2-3, (R)- or (S)-N-{1-[1-cyclopropylethyl]-3-methyl-1H-pyrazol-4-yl}-2-(1H-pyrazol-4-yl)-1,3-thiazole-4-carboxamide], the “LRRK2 pIC50” value falls from 7.89 to 6.99.

`Cn1cc(-c2nc(C(=O)Nc3cn(C4CC4)nc3C3CC3)cs2)cn1` [Example 12-3, N-(1,3-dicyclopropyl-1H-pyrazol-4-yl)-2-(1-methyl-1H-pyrazol-4-yl)-1,3-thiazole-4-carboxamide] and `O=C(Nc1cn(CC2CCOCC2)nc1C(F)F)c1csc(-c2cn[nH]c2)n1` [Example 7-7, N-[3-(difluoromethyl)-1-(tetrahydro-2H-pyran-4-ylmethyl)-1H-pyrazol-4-yl]-2-(1H-pyrazol-4-yl)-1,3-thiazole-4-carboxamide] are within 0.2 log units of each other in “LRRK2 pIC50” value: 7.84 for the first, 7.72 for the second.

`O=C(Nc1cnn(C2CCC2)c1)c1ccn(-c2ncccn2)n1` [Example 4-11, N-(1-cyclobutyl-1H-pyrazol-4-yl)-1-pyrimidin-2-yl-1H-pyrazole-3-carboxamide] and `O=C(Nc1cnn(C2CCC2)c1)c1coc(-c2ccccc2)n1` [Example 4-4, N-(1-cyclobutyl-1H-pyrazol-4-yl)-2-phenyl-1,3-oxazole-4-carboxamide] are within 0.2 log units of each other in “LRRK2 pIC50” value: 5.71 for the first, 5.68 for the second.

Going from `O=C(Nc1cnn(CC2CCC(F)(F)CC2)c1)c1csc(-c2cn[nH]c2)n1` [Example 7-8, N-{1-[(4,4-difluorocyclohexyl)methyl]-1H-pyrazol-4-yl}-2-(1H-pyrazol-4-yl)-1,3-thiazole-4-carboxamide] to `Cc1nc(C(=O)Nc2cnn(C3CCC3)c2)ccc1C#N` [Example 4-2, 5-cyano-N-(1-cyclobutyl-1H-pyrazol-4-yl)-6-methylpyridine-2-carboxamide], the “LRRK2 pIC50” value falls from 7.35 to 5.07.
